Here are results for 2 molecules from publication PMC12431657, “Discovery and mechanistic insights of dibenzoylmethane as a broad spectrum inhibitor of coronavirus” (PLOS Pathogens, 2025).

The test system of experiment [1] is HCoV-229E. The experiment is described as follows: Antiviral activity in vitro, viral RNA copies by qRT-PCR, HCoV-229E in Huh-7 cells. Type of experiment: cell-based. To be noted: for EC50 (229E, Huh-7): inhibition at the concentration: replicates. (Real-time PCR tracks product formation cycle by cycle.)
The next experiment has as its system airway inflammation. To be noted: 50 mpk; cited from earlier work.
For experiment [2], the system named is HCoV-229E. The experiment in a line: Antiviral activity in vitro, qRT-PCR, HCoV-229E in MRC-5 cells. To be noted: for HCoV-229E, MRC-5: inhibition at the concentration (Fig2B): replicates. The experiment is classed as cell-based.
Experiment [3] has as its system HCoV-OC43. The experiment in a line: Antiviral activity in vitro, qRT-PCR, HCoV-OC43 in Huh-7 cells. Type of experiment: cell-based. To be noted: for HCoV-OC43, Huh-7: inhibition at the concentration (Fig2B): replicates.
The test system of experiment [4] is HCoV-OC43.
The test system of experiment [5] is HCoV-OC43. The experiment in a line: Antiviral activity in vitro, qRT-PCR, HCoV-OC43 in RD cells. To be noted: for EC50 (OC43, RD): inhibition at the concentration: replicates. The experiment is classed as cell-based.
Experiment [6] concerns HCoV-OC43. The experiment is described as follows: Time-of-addition assay. To be noted: replicates. Type of experiment: cell-based. The protocol:
To obtain further insight into the stage at which DBM inhibits the replication of HCoV-OC43 and other HCoVs, RD cells were incubated with compounds, including DBM, remdesivir (RDV), and chloroquine (CQ), at different stages of viral infection. Viral RNA from the supernatant was extracted and quantitatively analysed via qRT-PCR. […] For the viral binding assay, cells were cultured in the presence or absence of DBM at different concentrations for 1 hour before being infected with HCoV-OC43 at an MOI of 50, and then were placed on ice for 2 hours for the viral particles to bind to the membrane of the host cells, followed by washing with PBS. […] In addition to binding to receptors from host cells, the spike proteins of HCoV-OC43 could also trigger membrane fusion when HCoV-OC43 spike plasmid-transfected 293T cells were seeded together with RD cells as target cells, and the addition of DBM had no effect on this process (S5C Fig). To examine whether DBM inhibits viral internalisation, cells were inoculated with HCoV-OC43 for 1 hour on ice before being treated with either DBM or DMSO, and CQ was included to prevent endosomal acidification. Subsequently, HCoV-OC43 nucleocapsid proteins were immunostained with CoraLite Plus 488 to assess viral internalisation via confocal microscopy. […] To determine whether DBM influences viral release, we quantified viral RNA both intracellularly and in the supernatant.
To evaluate the effects of DBM on the life cycle of HCoV-229E and HCoV-OC43, fresh culture medium containing 0.6 μM DBM, 0.1 μM remdesivir (RDV), or 10 μM chloroquine (CQ) was supplemented with preseeded cells at different time points relative to infection (entry group: 0 to –2 hours; postinfection group: 2–12 hours; and full-time group: 0 to –12 hours). DMSO served as the control. At 24 hours postinfection, the number of intracellular virus RNA copies was quantified by qRT-PCR as previously described.

Experiment [7] concerns HCoV-OC43. The experiment is classed as cell-based. To be noted: transient expression or RDV control, replicates.

“And” between values parts separate entries of the source, which are not always exact repeats. Equal entries are not always repeated.

As a reminder, the EC50 is the concentration giving half of the maximal effect. Consider `C/C=C(/C)C(=O)OC(C)(C)[C@@H]1Cc2c(ccc3ccc(=O)oc23)O1` [Columbianadin, columbianadin], for which the EC50 is less than 0.08 µM in the experiment with HCoV-229E [1] (Human coronavirus 229E, Huh-7, 24 h, read-out: EC50 HCoV-229E (Huh-7)); 1.55 µM in the experiment with HCoV-229E [2] (Human coronavirus 229E, MRC5, 24 h, read-out: EC50 HCoV-229E (MRC-5)); 0.19 µM in the experiment with HCoV-OC43 [3] (Betacoronavirus 1, OC43, Huh-7, 24 h, read-out: EC50 HCoV-OC43 (Huh-7)); 2.22 µM with HCoV-OC43 [5] (Betacoronavirus 1, OC43, RD, 24 h, read-out: EC50 HCoV-OC43 (RD)). In addition, the “EC50 (229E, Huh-7): inhibition at the concentration” value in the experiment on HCoV-229E [1] (conc. 0.1 (unit not given)) was 58.8 and 59.6 and 58; in the experiment with HCoV-229E [1] (conc. 0.2 (unit not given)), 70.5 and 77.4 and 76.1; in the experiment with HCoV-229E [1] (conc. 0.7 (unit not given)) it was 68 and 72.5 and 61.2; with HCoV-229E [1] (conc. 2.2 (unit not given)), 74.2 and 70.6 and 86.9; in the experiment with HCoV-229E [1] (conc. 6.7 (unit not given)), 89.7 and 91.5 and 80.4; in the experiment on HCoV-229E [1] (conc. 20 (unit not given)), 92.4 and 94.9 and 95. The “airway inflammation in mice” value in the experiment with airway inflammation is reported as “suppress airway inflammation”. In addition, the “HCoV-229E, MRC-5: inhibition at the concentration (Fig2B)” value in the experiment with HCoV-229E [2] (conc. 0.1 (unit not given)) is 35.3 and 18.1 and 41.4; with HCoV-229E [2] (conc. 0.2 (unit not given)), 32.0 and 58.2; in the experiment with HCoV-229E [2] (conc. 0.7 (unit not given)), 17.5 and 18.6 and 52.2; with HCoV-229E [2] (conc. 2.2 (unit not given)), 63.2 and 52.3 and 54.8; with HCoV-229E [2] (conc. 6.7 (unit not given)) it was 83.3 and 82.1 and 80.5; with HCoV-229E [2] (conc. 20.0 (unit not given)), 94.9 and 92.9 and 95.1. Besides, the “HCoV-OC43, Huh-7: inhibition at the concentration (Fig2B)” value was 48.4 and 50.8 (2×) in the experiment with HCoV-OC43 [3] (conc. 0.1 (unit not given)); 30.0 and 36.0 and 38.1 with HCoV-OC43 [3] (conc. 0.2 (unit not given)); 73.5 and 75.0 and 75.6 in the experiment with HCoV-OC43 [3] (conc. 0.7 (unit not given)); 94.2 and 94.1 and 94.4 in the experiment on HCoV-OC43 [3] (conc. 2.2 (unit not given)); 98.5 (2×) and 98.6 in the experiment on HCoV-OC43 [3] (conc. 6.7 (unit not given)); 98.4 and 98.3 (2×) in the experiment on HCoV-OC43 [3] (conc. 20.0 (unit not given)). The Body weight changes in the experiment with HCoV-OC43 [4] (Columbianadin 50 mpk oral QD, day 0, one value per mouse) was 99.0 (4×) and 102.0 (2×). Besides, in the experiment with HCoV-OC43 [4] (columbianadin 50 mpk QD, erythromycin estolate 300 mpk QD), the “number of viral RNA copies in HCoV-OC43-infected mice” value is given as “did not significantly reduce”. Further, the “EC50 (OC43, RD): inhibition at the concentration” value is -25.3 and -42.7 and -34.3 in the experiment with HCoV-OC43 [5] (conc. 0.1 (unit not given)); -23.9 and 2.7 and -3.5 with HCoV-OC43 [5] (conc. 0.7 (unit not given)); 49.6 and 48.7 and 52.3 in the experiment on HCoV-OC43 [5] (conc. 2.2 (unit not given)); 93.7 and 94.2 and 94.0 in the experiment on HCoV-OC43 [5] (conc. 6.7 (unit not given)); 99.8 in the experiment on HCoV-OC43 [5] (conc. 20 (unit not given)).
As to `CCC(CC)COC(=O)[C@H](C)N[P@](=O)(OC[C@H]1O[C@@](C#N)(c2ccc3c(N)ncnn23)[C@H](O)[C@@H]1O)Oc1ccccc1` [RDV], the “time-of-addition, viral inhibition” value with HCoV-OC43 [6] (Entry) was 67.6 and 36.5 and 35.3; in the experiment with HCoV-OC43 [6] (Full-Time) it was 99.4 and 98.9 and 99.6; with HCoV-OC43 [6] (Post-Entry), 98.3 and 99.4 and 98.6. In addition, in the experiment with HCoV-OC43 [7], the “HCoV-OC43 inhibition (Fig5C)” value is 97.17 and 71.11 and 82.55.
